Source: US20100160228A1, “METHOD FOR INHIBITING OR STIMULATING ANGIOGENESIS IN AN INDIVIDUAL” (VALTION TEKNILLINEN TUTKIMUSKESKUS, priority 2007, published 2010)

How the values were obtained:
Format in all cases: cell-based, human
HUVEC [1] = test: VEGF-induced HUVEC proliferation assay; conditions: subconfluent HUVEC on gelatine, compared to no peptide treatment, n=3
Method: FIG. 3. TCPTP activity controls VEGF-dependent responses in endothelial cells. (A) HUVEC were transfected with the constitutively active TCPTP (TC37) or vector control (pCG), stimulated or not with VEGF, and stained for VEGFR2 (red) and nuclei (blue) after fixation and permeabilization. Arrows indicate VEGFR2 vesicles. (B) HUVEC were treated as in (A) and subjected to trypsin digestion on ice. VEGFR2 protected from trypsin (=internalized pool) was detected by immunoblotting. The intensities of VEGFR2 bands were quantified and are expressed relative to pCG-VEGF control. A representative experiment out of 2 with similar results is shown. (C) HUVEC were transfected with no oligo, siRNA against TCPTP or a control siRNA, and TCPTP expression was measured using immunoblotting. […] (D) HUVEC were transfected as in (A) and chemotaxis towards VEGF was measured using a Transwell assay for 4 hours. […] Number of migrated cells was counted (mean±SEM, n=3).
(§1) Cell proliferation and survival assays. The number of viable HUVEC was analyzed with WST-1 reagent (Roche). Cell proliferation was measured with BrdU assay (Cell proliferation ELISA Biotrak system, Amersham) from siRNA-transfected HUVEC grown in RPMI1640+1% FBS+2 mM L-glutamine supplemented with 80 ng/ml VEGF.

VEGFR2 = VEGFR2 internalization assay in HUVEC (microscopy, cold trypsin protection); conditions: for effect on VEGFR2 internalization in confluent cells: confluent HUVEC, peptide 200 nM, FIG. 10C
Method: FIG. 3. TCPTP activity controls VEGF-dependent responses in endothelial cells. (A) HUVEC were transfected with the constitutively active TCPTP (TC37) or vector control (pCG), stimulated or not with VEGF, and stained for VEGFR2 (red) and nuclei (blue) after fixation and permeabilization. Arrows indicate VEGFR2 vesicles. (B) HUVEC were treated as in (A) and subjected to trypsin digestion on ice. VEGFR2 protected from trypsin (=internalized pool) was detected by immunoblotting. The intensities of VEGFR2 bands were quantified and are expressed relative to pCG-VEGF control. A representative experiment out of 2 with similar results is shown. (C) HUVEC were transfected with no oligo, siRNA against TCPTP or a control siRNA, and TCPTP expression was measured using immunoblotting. Cells were treated with 80 ng/ml VEGF and proliferation of sparse cells plated on gelatin was assayed after 16 h using BrdU-based assay (mean±SD; n=4-6; *, p<0.05). (D) HUVEC were transfected as in (A) and chemotaxis towards VEGF was measured using a Transwell assay for 4 hours. Cells adhering to the bottom of the filter were fixed and stained with crystal violet. Number of migrated cells was counted (mean±SEM, n=3).
FIG. 7. TCPTP activation through the cytoplasmic domain of α1 integrin inhibits internalization of VEGFR2. […] VEGFR2 staining in the perinuclear area of cells (mean±SEM, n=30) was analyzed from blinded samples using densitometry and scored from 0 to 4 (0=no staining, 4=highest expression). […] VEGFR2 protected from trypsin (=internalized pool) was detected by immunoblotting. The intensity of VEGFR2 bands was quantified using densitometry and expressed as arbitrary units. […]
FIG. 10. […] (B) Confluent HUVEC on gelatin were treated with VEGF in the presence or absence of α1TAT or ScrTAT peptide and the number of live cells was detected using WST-1 reagent (mean±SD, n=3). […] The intensity of VEGFR2 bands was quantitated using densitometry (a representative experiment out of 3 with similar results is shown).
VEGFR2 internalization assay. […] The amount of VEGFR2 in each sample was analyzed using immunoblotting.

HUVEC [2] = test: Time-lapse chemokinesis assay; conditions: HUVEC on gelatin, 4 hours time-lapse, peptide 200 nM, FIG. 5B
Method: FIG. 5. Controlled TCPTP activation inhibits VEGF-driven capillary formation, chemokinesis and chemotaxis. (A) HUVEC were cultured in fibrin gels and treated with or without VEGF and TAT peptides (200 nM). After 24 h the formation of capillary tubes was semiquantitatively scored. (B) HUVEC were plated on gelatin in the presence of the peptides (200 nM) or left untreated for 1 h. The cells were stimulated as indicated and migration of individual cells was tracked using time-lapse microscopy. Cumulative migration distance was plotted for randomly picked individual cells. (C) HUVEC were treated with 200 nM peptides and the transmigration assay was performed as in FIG. 3D. (D) HUVEC were transfected with siRNA against TCPTP or a control siRNA, and TCPTP expression was analysed with immunofluorescence. Equal exposures of TCPTP (green) and DAPI (blue) stainings are shown. 48 h post-transfection cells were subjected to transmigration assay as in […].
FIG. 9. TCPTP activation by α1-peptide inhibits VEGF induced chemokinesis. HUVEC were plated on gelatin in the presence of the peptides (200 nM) or left untreated for 1 h. The cells were stimulated as indicated and migration of individual cells was tracked using time-lapse microscopy. Representative images of individual cells overlayed with their migration patterns (different colours) at the indicated time points are shown.
Time-lapse chemokinesis assays. HUVEC were plated on gelatin-coated wells and allowed to attach for 1 h in the presence or absence of 200 nM α1TAT or ScrTAT and 20 ng/ml VEGF. Migration of individual cells was recorded at 5 min intervals for 4 h using 20× objective and digital video recording. The migration pathway of at least ten randomly picked cells was tracked using the Metamorph program. The cumulative migration distances were also plotted.

HUVEC [3] = test: Survival of confluent HUVEC (WST-1); conditions: confluent HUVEC on gelatin, WST-1, FIG. 10B
Method: FIG. 10. […] (A) Serum-starved HUVEC were plated to confluency on gelatin and treated for 1 h with α1 integrin cytoplasmic tail fusion peptide (α1TAT) or TAT-scramble control fusion peptide (ScrTAT) (both at 200 nM) or not treated, followed by VEGF-induction (15 min) when indicated. Cell lysates were immunoblotted for phosphorylated VEGFR2 (or tubulin as a control). (B) Confluent HUVEC on gelatin were treated with VEGF in the presence or absence of α1TAT or ScrTAT peptide and the number of live cells was detected using WST-1 reagent (mean±SD, n=3). (C) α1TAT treatment has no effect on internalization of VEGFR2 in confluent HUVEC. HUVEC were plated to confluency on gelatin, stimulated or not with the TAT peptides (200 nM) and VEGF, and treated with trypsin on ice. Cells were lysed after inactivation of trypsin and the lysates were immunoblotted for detection of VEGFR2 protected from trypsin (=internalized pool). The intensity of VEGFR2 bands was quantitated using densitometry (a representative experiment out of 3 with similar results is shown).
as §1

| Sequence | inhibition of VEGF-induced proliferation (HUVEC [1]) [%] | effect on VEGFR2 internalization in confluent cells (VEGFR2) | inhibition of VEGF-induced chemokinesis (HUVEC [2]) | effect on survival of HUVEC in confluent cells (HUVEC [3]) | internalization of VEGFR2 in HUVEC (VEGFR2; subconfluent HUVEC, peptide 200 nM 1 h, VEGF 100 ng/ml 15 min, FIG. 7) |
| --- | --- | --- | --- | --- | --- |
| YGRKKRRQRRRLKGWRFKLKPKFKEMK (SEQ ID NO 8) [ScrTAT, reference compound] | 4±4 | no effects | no significant effect | no effects |  |
| YGRKKRRQRRRWKLGFFKRPLKKKMEK (SEQ ID NO 3) [α1TAT] | 74±8 | no effects | 76±4% | no effects | specifically inhibited |
